Test results from US12702676B2, “Fosfomycin dosing regimens” (priority 2017, dated 2026).

How the values were obtained:
[1] = test system: baseline bacterial pathogen in cUTI or AP; assay: ZEUS Phase 2/3 noninferiority trial, efficacy at TOC in hospitalized adults; type: in vivo, human; conditions: for overall success rates at TOC: m-MITT population, clinical cure plus microbiologic eradication, 6 g ZTI-01 q8h or 4.5 g P-T q8h IV; for overall success rates using unique pathogen strains typed by PFGE: post-hoc analysis
Experimental: Oral step-down therapy was prohibited (FIG. 4).
A post-hoc analysis using pulsed-field gel electrophoresis (PFGE) was performed to molecularly type all baseline and TOC pathogens (both treatment arms), in order to confirm microbiological eradication/persistence; a total of 20 post-baseline pathogens were identified as unique, unrelated strains compared to baseline.

[2] = ZEUS Phase 2/3 trial, safety (adverse events); conditions: for Any AEs / Any TEAEs / Drug-related SAE / Drug-related TEAEs / SAEs / Serious TEAEs leading to study drug discontinuation / TEAEs leading to study drug discontinuation / TEAEs: Mild / TEAEs: Moderate / TEAEs: Severe: MITT Safety Population (n = 233 ZTI-01, n = 231 P-T); for SAE related to study drug (1 in each treatment group): in vivo
[3] = Bacteremia, m-MITT (N1 19 ZTI-01, 13 P-T)
[4] = CE-TOC (N1 199 ZTI-01, 196 P-T)
[5] = ME-TOC (N1 155 ZTI-01, 145 P-T)
[6] = Original Analysis, ME-TOC (N1 155 ZTI-01, 145 P-T)
[7] = Original Analysis, m-MITT (N1 184 ZTI-01, 178 P-T)
[8] = Post-hoc Analysis Using PFGE Typing, ME-TOC (N1 155 ZTI-01, 145 P-T)
[9] = Post-hoc Analysis Using PFGE Typing, m-MITT (N1 184 ZTI-01, 178 P-T)
[10] = SIRS, m-MITT (N1 62 ZTI-01, 52 P-T)
[11] = m-MITT (N1 184 ZTI-01, 178 P-T)

With `C[C@@H]1O[C@@H]1P(=O)(O)O` [ZTI-01, fosfomycin] the “Clinical Response at TOC: Eradication” value [1, 3] was 15 (78.9%) n (%), the “Clinical Response at TOC: Indeterminate” value [1, 3] was 2 (10.5%) n (%) and the “Clinical Response at TOC: Persistence” value [1, 3] was 2 (10.5%) n (%). For the same molecule, the “Overall Response at TOC: Eradication” value [1, 3] was 9 (47.4%) n (%), the “Overall Response at TOC: Indeterminate” value [1, 3] was 3 (15.8%) n (%) and the “Overall Response at TOC: Persistence” value [1, 3] was 7 (36.8%) n (%). The “Per-patient Microbiological Response at TOC: Eradication” value [1, 3] was 9 (47.4%) n (%), the “Per-patient Microbiological Response at TOC: Indeterminate” value [1, 3] was 4 (21.2%) n (%) and the “Per-patient Microbiological Response at TOC: Persistence” value [1, 3] was 6 (31.6%) n (%). For the same molecule, the “Clinical Response at TOC: Cure” value [1, 4] was 188 (94.5%) n (%), the “Clinical Response at TOC: Failure” value [1, 4] was 11 (5.5%) n (%) and the “Clinical Response at TOC: Treatment Difference (ZTI-01 vs P-T)” value ([1]; CE-TOC, 95% CI (−3.7, 6.9)) was 1.6%. For the same molecule, the “Clinical Response at TOC: Cure” value [1, 5] was 148 (95.5%) n (%), the “Clinical Response at TOC: Failure” value [1, 5] was 7 (4.5%) n (%) and the “Clinical Response at TOC: Treatment Difference (ZTI-01 vs P-T)” value ([1]; ME-TOC, 95% CI (−3.5, 8.3)) was 2.4%. For the same molecule, the “Clinical Response at TOC: Cure” value ([1]; MITT (N1 233 ZTI-01, 231 P-T)) was 211 (90.6%) n (%), the “Clinical Response at TOC: Failure” value ([1]; MITT (N1 233 ZTI-01, 231 P-T)) was 11 (4.7%) n (%) and the “Clinical Response at TOC: Indeterminate” value ([1]; MITT (N1 233 ZTI-01, 231 P-T)) was 11 (4.7%) n (%). The “Clinical Response at TOC: Treatment Difference (ZTI-01 vs P-T)” value ([1]; MITT, 95% CI (−6.8, 4.4)) was −1.2%, the “Microbiological Response at TOC: Eradication” value [1, 6] was 109 (70.3%) n (%) and the “Microbiological Response at TOC: Persistence” value [1, 6] was 46 (29.7%) n (%). For the same molecule, the “Microbiological Response at TOC: Eradication” value [1, 7] was 121 (65.8%) n (%), the “Microbiological Response at TOC: Indeterminate” value [1, 7] was 13 (7.1%) n (%) and the “Microbiological Response at TOC: Persistence” value [1, 7] was 50 (27.2%) n (%). The “Microbiological Response at TOC: Eradication” value [1, 8] was 117 (75.5%) n (%), the “Microbiological Response at TOC: Persistence” value [1, 8] was 38 (24.5%) n (%) and the “Microbiological Response at TOC: Eradication” value [1, 9] was 130 (70.7%) n (%). For the same molecule, the “Microbiological Response at TOC: Indeterminate” value [1, 9] was 13 (7.1%) n (%), the “Microbiological Response at TOC: Persistence” value [1, 9] was 41 (22.3%) n (%) and the “Clinical Response at TOC: Eradication” value [1, 10] was 55 (88.7%) n (%). For the same molecule, the “Clinical Response at TOC: Indeterminate” value [1, 10] was 4 (6.5%) n (%), the “Clinical Response at TOC: Persistence” value [1, 10] was 3 (4.8%) n (%) and the “Overall Response at TOC: Eradication” value [1, 10] was 41 (66.1%) n (%). The “Overall Response at TOC: Indeterminate” value [1, 10] was 5 (8.1%) n (%), the “Overall Response at TOC: Persistence” value [1, 10] was 16 (25.8%) n (%) and the “Patient Microbiological response at TOC: Eradication” value [1, 10] was 41 (66.1%) n (%). The “Patient Microbiological response at TOC: Indeterminate” value [1, 10] was 7 (11.3%) n (%), the “Patient Microbiological response at TOC: Persistence” value [1, 10] was 14 (22.6%) n (%) and the “Clinical Response at TOC: Cure” value [1, 11] was 167 (90.8%) n (%). The “Clinical Response at TOC: Failure” value [1, 11] was 9 (4.9%) n (%), the “Clinical Response at TOC: Indeterminate” value [1, 11] was 8 (4.3%) n (%) and the “overall success rates at TOC” value [1] was 64.7%. For the same molecule, the “difference in overall success rate (ZTI-01 vs P-T)” value ([1]; m-MITT, TOC, 95% CI −0.4, 20.8) was 10.2%, the “Clinical Response at TOC: Treatment Difference (ZTI-01 vs P-T)” value ([1]; m-MITT, 95% CI (−7.2, 5.6)) was −0.8% and the “overall success rates using unique pathogen strains typed by PFGE” value ([1]; m-MITT, TOC) was 69.0%. The “difference in overall success rate using PFGE typing (ZTI-01 vs P-T)” value ([1]; post-hoc, 95% CI 1.3, 22.1) was 11.7%, the “effective (patients with AP)” value ([1]; preferred dosing regimen 6 g tid) was 68% and the “Any AEs” value [2] was 99 (42.5%) n (%). For the same molecule, the “Any TEAEs” value [2] was 98 (42.1%) n (%), the “Drug-related SAE” value [2] was 1 (0.4%) n (%) and the “Drug-related TEAEs” value [2] was 48 (20.6%) n (%). The SAEs [2] was 5 (2.1%) n (%), the “Serious TEAEs leading to study drug discontinuation” value [2] was 0 (0%) n (%) and the “TEAEs leading to study drug discontinuation” value [2] was 7 (3.0%) n (%). The “TEAEs: Mild” value [2] was 84 (36.1%) n (%), the “TEAEs: Moderate” value [2] was 35 (15.0%) n (%) and the “TEAEs: Severe” value [2] was 5 (2.1%) n (%). The “SAE related to study drug (1 in each treatment group)” value [2] was “hypokalemia”, the tolerability ([2]; majority of AEs mild to moderate) was “generally well tolerated” and the “treatment-emergent adverse events (TEAEs) observed, % of patients” value ([2]; safety population (n=464)) was 42.1%.
In the case of piperacillin/tazobactam [P-T], the “Clinical Response at TOC: Eradication” value [1, 3] is reported as 10 (76.9%) n (%), the “Clinical Response at TOC: Indeterminate” value [1, 3] is reported as 0 (0%) n (%) and the “Clinical Response at TOC: Persistence” value [1, 3] is reported as 3 (23.1%) n (%). For the same molecule, the “Overall Response at TOC: Eradication” value [1, 3] was 5 (38.5%) n (%), the “Overall Response at TOC: Indeterminate” value [1, 3] was 0 (0%) n (%) and the “Overall Response at TOC: Persistence” value [1, 3] was 8 (61.5%) n (%). For the same molecule, the “Per-patient Microbiological Response at TOC: Eradication” value [1, 3] was 6 (46.2%) n (%), the “Per-patient Microbiological Response at TOC: Indeterminate” value [1, 3] was 0 (0%) n (%) and the “Per-patient Microbiological Response at TOC: Persistence” value [1, 3] was 7 (53.8%) n (%). For the same molecule, the “Clinical Response at TOC: Cure” value [1, 4] was 182 (92.9%) n (%), the “Clinical Response at TOC: Failure” value [1, 4] was 14 (7.1%) n (%) and the “Clinical Response at TOC: Cure” value [1, 5] was 135 (93.1%) n (%). For the same molecule, the “Clinical Response at TOC: Failure” value [1, 5] was 10 (6.9%) n (%), the “Clinical Response at TOC: Cure” value ([1]; MITT (N1 233 ZTI-01, 231 P-T)) was 212 (91.8%) n (%) and the “Clinical Response at TOC: Failure” value ([1]; MITT (N1 233 ZTI-01, 231 P-T)) was 16 (6.9%) n (%). The “Clinical Response at TOC: Indeterminate” value ([1]; MITT (N1 233 ZTI-01, 231 P-T)) was 3 (1.3%) n (%), the “Microbiological Response at TOC: Eradication” value [1, 6] was 86 (59.3%) n (%) and the “Microbiological Response at TOC: Persistence” value [1, 6] was 59 (40.7%) n (%). For the same molecule, the “Microbiological Response at TOC: Eradication” value [1, 7] was 100 (56.2%) n (%), the “Microbiological Response at TOC: Indeterminate” value [1, 7] was 9 (5.1%) n (%) and the “Microbiological Response at TOC: Persistence” value [1, 7] was 69 (38.8%) n (%). The “Microbiological Response at TOC: Eradication” value [1, 8] was 93 (64.1%) n (%), the “Microbiological Response at TOC: Persistence” value [1, 8] was 52 (35.9%) n (%) and the “Microbiological Response at TOC: Eradication” value [1, 9] was 107 (60.1%) n (%). For the same molecule, the “Microbiological Response at TOC: Indeterminate” value [1, 9] was 9 (5.1%) n (%), the “Microbiological Response at TOC: Persistence” value [1, 9] was 62 (34.8%) n (%) and the “Clinical Response at TOC: Eradication” value [1, 10] was 48 (92.3%) n (%). For the same molecule, the “Clinical Response at TOC: Indeterminate” value [1, 10] was 2 (3.8%) n (%), the “Clinical Response at TOC: Persistence” value [1, 10] was 2 (3.8%) n (%) and the “Overall Response at TOC: Eradication” value [1, 10] was 39 (75.0%) n (%). The “Overall Response at TOC: Indeterminate” value [1, 10] was 2 (3.8%) n (%), the “Overall Response at TOC: Persistence” value [1, 10] was 11 (21.2%) n (%) and the “Patient Microbiological response at TOC: Eradication” value [1, 10] was 40 (76.9%) n (%). For the same molecule, the “Patient Microbiological response at TOC: Indeterminate” value [1, 10] was 2 (3.8%) n (%), the “Patient Microbiological response at TOC: Persistence” value [1, 10] was 10 (19.2%) n (%) and the “Clinical Response at TOC: Cure” value [1, 11] was 163 (91.6%) n (%). The “Clinical Response at TOC: Failure” value [1, 11] was 12 (6.7%) n (%), the “Clinical Response at TOC: Indeterminate” value [1, 11] was 3 (1.7%) n (%) and the “overall success rates at TOC” value [1] was 54.5%. The “overall success rates using unique pathogen strains typed by PFGE” value ([1]; m-MITT, TOC) was 57.3%, the “Any AEs” value [2] was 74 (32.0%) n (%) and the “Any TEAEs” value [2] was 74 (32.0%) n (%). The “Drug-related SAE” value [2] was 1 (0.4%) n (%), the “Drug-related TEAEs” value [2] was 32 (13.9%) n (%) and the SAEs [2] was 6 (2.6%) n (%). The “Serious TEAEs leading to study drug discontinuation” value [2] was 1 (0.4%) n (%), the “TEAEs leading to study drug discontinuation” value [2] was 6 (2.6%) n (%) and the “TEAEs: Mild” value [2] was 49 (21.2%) n (%). For the same molecule, the “TEAEs: Moderate” value [2] was 38 (16.5%) n (%), the “TEAEs: Severe” value [2] was 4 (1.7%) n (%) and the “SAE related to study drug (1 in each treatment group)” value [2] was “renal insufficiency”.
